Results reported in a melting point compilation (Tetko et al.; mined from patent text by program, amines drawn as free bases though some values may be those of a salt).

Compound	melting point
CC#CCOc1ccc(S(=O)(=O)NC[C@@H](C(=O)NO)N2CCN(S(C)(=O)=O)CC2)cc1	150 °C
CC(=O)OCCOc1ccc(C2C(=O)Oc3c2cc(C(C)(C)C)cc3C(C)(C)C)cc1 (stereo unspecified)	75 to 78 °C
Cc1cc(SCCCSc2nnnn2C)nc(N)n1	119 to 120 °C
COC(=O)c1[nH]c2c(C)ccc(Cl)c2c1C	122 to 123 °C
O=C(O)c1csc(Br)n1	227 to 229 °C
Nc1c(F)c(F)c(OC(F)F)c2c1c(=O)c(C(=O)O)cn2C1CC1	284 to 286 °C
CC1CC(=O)NN=C1c1ccc(NN=C(C#N)C#N)cc1 (single isomer, unassigned; (+))	210 to 214 °C
C=C(C)C(=O)NCC(=O)NCC(=O)O	200 to 201 °C
CCCC/C=C\CCCCCCCCCC1=CC(=O)C=C(OC)C1=O	39.5 to 41.5 °C
CC(C)(C)OC(=O)c1ccc(OCCCCl)cc1	57.5 to 58.5 °C
COc1cncnc1-c1ssc(=S)c1C	136 °C
Cc1ccc(NN)c2c1CC(C)O2 (stereo unspecified)	90 to 92 °C
CCOC(=O)c1c(Cn2cncn2)nc2sc(C)c(C)c2c1-c1ccc2c(c1)OCO2	109 to 110 °C
O=C(c1ccc(F)cc1)C1(c2ccc(F)cc2)CCN(Cc2ccccc2)CC1	136 to 138 °C
CCNC(=O)c1c(Cl)cccc1OC(C)(C)C	126 to 127 °C
CC(C)[C@H](CO)Cc1ccc(C(C)(C)C)cc1	49 to 51 °C
O=Cc1ncn2c1[C@@H]1CCCN1C(=O)c1ccccc1-2	206 to 208 °C
COC(=S)OC(C(=O)O)c1ccccc1 (stereo unspecified)	86 to 87 °C
CCN(CC)C(=O)[C@H]1CN2CC[C@H]1[C@H](NCc1cc(OC)ccc1OC)[C@@H]2C(c1ccccc1)c1ccccc1 (relative stereo)	153 to 154 °C
CC(CO)C1CCC2C3C=CC4=CC(=O)C5OC5C4(C)C3CCC12C (stereo unspecified)	158 to 161 °C
Cc1cc(C(=O)NC2CC(C)(C)NC(C)(C)C2)c(C)o1	116 to 118 °C
CC(=O)Nc1cccc(C(c2cccc(NC(C)=O)c2)(C(F)(F)F)C(F)(F)F)c1	309 to 311 °C
CN1Cc2c(C(=O)OC(C)(C)C)ncn2-c2cccc(C#N)c2C1=O	213 to 215 °C
Nc1ncccc1OCc1c(Cl)cccc1Cl	141 to 142 °C
CC(=O)OCC(C)(C)C(=O)O	56 to 59 °C
CC(=O)c1cc(CBr)cc(CBr)c1	87 to 88 °C
O=c1[nH]c2ccc(Cl)cc2n2ccnc12	> 300 °C
OC1C(COCC(F)(F)F)OC(n2cnc3c(NC4CCOCC4)ncnc32)C1O (stereo unspecified)	80 to 82 °C

Compound	melting point
c1ccc(Cc2cccnn2)cc1	61 to 64 °C
COC(=O)c1ccc(Cl)c2c1C=CCO2	49 to 50 °C
O=c1[nH]c2scc(-c3ccccc3)c2[nH]c1=O	> 300 °C
CC[Si](CC)(CC)c1ccccc1S(N)(=O)=O	85.6 °C
CC1(C)C2=C(Cl)C(=O)C(Cl)=CC2=Nc2ccc(O)cc21	< 250 °C
CCCCCCCCCCCCN1CN=C(NC(=O)Nc2c(C(C)C)cccc2C(C)C)N1	128 to 140 °C
CCCCCCC(O)CC(=O)O (stereo unspecified)	49.3 to 50 °C
CCCCCCOc1ccc(C(=O)NC2CCC(C)(C)C2)cc1 (stereo unspecified)	82 to 83 °C
CC(C)(C)COC(=O)COc1ccc(C(=O)CBr)cc1	85 to 87 °C
CP(C)(=O)C(O)C(N)=O (stereo unspecified)	155 °C
N=C(N)N1CCN(C23CC4CC(CC(C4)C2)C3)CC1	182 to 186 °C
c1cc(OCC2CO2)c2nonc2c1 (stereo unspecified)	75 °C
CC(C)CNc1c(N)c2nnnn2c2cnccc12	203 to 204 °C
C[Si]1(C)CC[Si](C)(C)N1c1ccc(Br)cn1	50.4 to 55.8 °C
CN1C(=S)N(C)C2(c3ccccc3)CCCN12 (stereo unspecified)	83 to 85 °C
O=[N+]([O-])c1ccc2ncnc(Nc3cc(Cl)c(Cl)cc3F)c2c1	270 to 271 °C
CC(C)(C)c1cc(C[Si](C)(C)C)cc(C(C)(C)C)c1S	100 to 101 °C
O=c1ccc2ccc(CO)cc2o1	116 to 117 °C
COC(=O)c1oc2cc3ccccc3cc2c1OC	121 to 124 °C
COc1ccc(Cn2c(=O)c(C(=O)NC3CCCCC3)c(O)c3cc(Cl)cnc32)cc1	193 °C
N#CC1CN1C(=O)c1ccco1 (stereo unspecified)	73 to 76 °C
COP(=O)(Cc1nc2ccccc2nc1CP(=O)(OC)OC)OC	115 to 116 °C
CCNC(=O)C1Cc2c(n(C)c3ccc(OC)cc23)C1 (stereo unspecified)	162 to 163 °C
N#CC(=Cc1cc(O)c(O)c(Br)c1)C(=O)Nc1cccc(Cl)c1	266 to 270 °C
CN1N=C2c3cc(F)ccc3SCC2CC1=O (stereo unspecified)	125 to 128 °C
CCCCCc1c(C(C)C)nc(C(C)C)c(C(O)CCCC)c1-c1ccc(F)cc1 (stereo unspecified)	66 to 68 °C
O=S(=O)(c1ccc2c(Cl)cccc2c1)N1CC2CC1CO2 (stereo unspecified)	132 to 133 °C

The remaining lines, values ahead:

melting point	Compound
136 to 138 °C	COC(=O)c1c(-c2cc(OC)c(OC)c(OC)c2)c2cc(OC)c(CC#N)cc2c(=O)n1-c1ccc(NC(=O)OC(C)(C)C)cc1
214 to 216 °C	Cc1cccc(NC(=O)NC2N=C(CO)c3cccc(C)c3N(CC(=O)N3CCCCCCC3)C2=O)c1 (stereo unspecified)
230 to 232 °C	O=C1CCC(N2Cc3c(OCc4ccc(CCN5CCOCC5)cc4)cccc3C2=O)C(=O)N1 (stereo unspecified)
42 to 44 °C	CC(C)(C)OC(=O)NC(CC(=O)OCc1ccccc1)C(=O)C(C#N)=P(c1ccccc1)(c1ccccc1)c1ccccc1 (stereo unspecified)
40 to 42 °C	Cc1oc(-c2ccccc2)nc1CCCCCO
259 °C	O=[N+]([O-])c1ccc2c(c1)S(=O)(=O)c1ccccc1-2
240 to 242 °C	Cc1cccc(NC(=O)Nc2cccc3c2C2CC(O)CCN2C3=O)n1 (stereo unspecified)
140 to 150 °C	O=C(Cn1c(-c2cccc(Cl)c2)nc2cccnc21)N1CCCCC1
264 to 265 °C	O=C(O)Cc1ccc(-c2cn3cccnc3n2)cc1
200 to 203 °C	Cc1cc(-n2ccnc2)c2cccc(OCc3c(Cl)ccc(N(C)C(=O)CN4C(=O)c5ccccc5C4=O)c3Cl)c2n1
85 to 86 °C	O=c1cccccc1N1CCN(CCO)CC1
70 to 77 °C	CCCn1nc(C2CC2)c(C(=O)OCC)c1Cc1ccc(-c2ccccc2S(N)(=O)=O)cc1
85 to 87.5 °C	CC(Oc1ccccc1)C(=O)NCCCCn1cnc2c(N)nc3ccccc3c21 (stereo unspecified)
200 to 202 °C	COCOc1ccc(-c2ncc3ncc(N4CCNCC4=O)cc3n2)cc1
68 to 71 °C	CC(C)CCC(=O)N[C@@H](Cc1ccccc1)C(=O)CSCc1ccco1
230 to 231 °C	COc1cc2c(cc1-c1ncco1)-c1c(-c3cccs3)c3c(n1CC2)C(=O)N(C(C)(C)C)CCC3
191 to 193 °C	O=C(Nc1ccc(Cl)nc1)C1=NN(c2ccc(Cl)cc2)C(c2ccc(F)cc2)C1 (stereo unspecified)
191 to 193 °C	CCCc1nc2c(N)nc3ccccc3c2n1CCCCN(O)C(C)=O
244 to 247 °C	CCCOc1ccccc1-c1ccc(C#N)c(=O)[nH]1
113 to 114 °C	Cc1c(C)c(N2Cc3ccccc3C2)c(C)c2c1OC(C)(C)C2c1ccc(C(C)C)cc1 (stereo unspecified)
278 to 280 °C	NC(=O)c1ccc(COc2cccc3c2CN(C2CCC(=O)NC2=O)C3=O)cc1 (stereo unspecified)
180 to 181 °C	CCOC(=O)C(Cc1ccccc1)NC(=O)COc1ccc(C2=NNC(=O)NC2)cc1Cl (stereo unspecified)
155 to 160 °C	Cn1c(C(=O)NCCCO)c2ccc(Cl)cc2c1-c1ccccc1

melting point	Compound
97 to 100 °C	CC1(C)COC(c2ccccc2-c2ccc(CO)cc2)=N1
147 to 152 °C	CC(=O)NNc1nc(C(F)(F)F)nc(-c2ccc(C)cc2)c1-c1ccccc1
106 to 108 °C	COC(=O)CCc1cc2cc(C(F)(F)F)ccc2n1S(=O)(=O)c1cccc2nc(C)sc12
203 to 205 °C	COc1cc2c(Nc3ccc(Sc4ccccn4)c(Cl)c3)c(C#N)cnc2cc1N1CCC(N2CCCC2)CC1
142 to 144 °C	CN1CCN(c2ccc(/C=C/c3ccccc3F)cc2)CC1
128 to 130 °C	CS(=O)(=O)c1ccc(-c2cnn(C3CCc4ccccc43)c(=O)c2-c2ccc(F)cc2)cc1 (stereo unspecified)
296 to 298 °C	C=CC(=O)Nc1ccc2c(Nc3cccc(Cl)c3)ncnc2c1
112 to 113 °C	COc1cccc(-c2nc(-c3ccccc3)c3ncc(Cl)cc3n2)c1
64 to 65 °C	CS(=O)(=O)c1ccc(-n2cc(COCc3ccccc3)nc2-c2ccc(Cl)cc2)cc1
167 to 169 °C	O=Cc1ccc(N2C[C@H](CN3C(=O)c4ccccc4C3=O)OC2=O)cc1F
145 to 147 °C	O=C(NCCc1ccccc1)Nc1ccc(CN2C(=O)[C@H]3CCC[C@H]3N(C(=O)CN3C(=O)c4ccccc4C3=O)c3ccccc32)cc1 (relative stereo)
101 to 102 °C	NC(=CC(=O)[C@H](Cc1ccccc1)N(Cc1ccccc1)Cc1ccccc1)Cc1ccccc1
163 to 165 °C	COc1ccc2c(c1)cc(C(=O)Nc1nc(-c3cc(OC)c(C)cc3OC)c(CCC3CCCCC3)s1)n2CC(=O)O
> 300 °C	CCCn1cc2c(C3C(=O)Nc4ccc(Br)cc43)nc(NCCCN)nc2n1 (stereo unspecified)
59 to 64 °C	CCCCCCCCc1ccc(C(=O)Cc2cccc(C#N)c2)cc1
149 to 150 °C	O=C1OC(COc2ccc(CO)cc2)CN1c1ccc(Cl)cc1 (stereo unspecified)
206 to 207 °C	COc1cccc(Oc2c(Cl)nc(-c3cccs3)nc2NS(=O)(=O)c2ccc(C(C)(C)C)cc2)c1
211 to 212 °C	Nc1cc(-c2ccoc2)ccc1Nc1cccc(C(=O)O)c1
146 to 148 °C	COc1cc(COc2nn(-c3ccccc3)cc2C=O)ccc1OCc1nc(-c2cccc(OS(C)(=O)=O)c2)oc1C
240 to 245 °C	COc1cc2c(cc1OC)[C@@H]1CN(C)CC[C@@H]1N=C2c1ccc(NC(=O)c2ccccc2)cc1 (relative stereo)
105 to 107 °C	COCCN1CCN(CCc2ccc(Nc3ncc4c(n3)-c3ccccc3C(c3cccc(Br)c3)C4)cc2)CC1 (stereo unspecified)
139 to 140 °C	CC(C)CCN1CNC(=O)C12CCN(Cc1ccccc1)CC2
194 to 196 °C	OP(O)C1(NC(c2ccccc2)c2ccccc2)CCCCC1
